Converted amounts (≈) assume the structure as drawn. Like-named read-outs stand apart in the source and are kept apart here.
Columns and labels:
Experiment in all cases: microbe, parasite or virus in culture
[1] = tested on: T1, Cupriavidus metallidurans AE104; parameters: growth inhibition of bacterial culture by metal chelators
T1 construct: AE104
From the text: EDTA, membrane-permeant TPEN, and DIP complex divalent transition metal cations with similar stability constants, EDTA with Cu > Ni > Zn > Co > Fe = Mn, TPEN with a similar ranking but higher stability constants, and DIP with Cu = Fe > Zn in an inverted arrangement ([43][–][45]). The ∆folE single and double mutants grew with only a slight delay compared to the parental strain AE104 in the presence of TPEN (Fig. S8), and the IC50 values for the ∆folE single mutants and TPEN were not different from that of the parent AE104 (Table S8). When the gene for the zinc importer ZupT was deleted, the IC50 values of all strains decreased below 0.5 µM TPEN, again without differences between the mutants and the ∆zupT parent (Fig. S8C). […] Due to large deviations, not much influence of TPEN on the growth of the ∆folE mutants could be measured. […] In contrast, TPEN mediated an overall decrease of metal availability. In the presence of DIP, growth of both ∆folE_IB mutants of strain AE104 was similar to their parent, but the ∆folE_IA mutant was more sensitive to DIP (Fig. S9A) with a decrease in the IC50 value from about 60 µM to 36 ± 7 µM (Table S8). The zinc content of the four strains in the presence of 25 µM DIP was similar, but the cobalt content was decreased (Table S6). […]

[2] = tested on: T1, Cupriavidus metallidurans AE104; parameters: growth inhibition of bacterial culture by oxidative stress agents; conditions: read-out: PQ
[3] = tested on: T1, Cupriavidus metallidurans AE104; parameters: growth inhibition of bacterial culture, final turbidity in TMM medium; conditions: read-out: TMP,
Protocol: Trimethoprim and sulfonamide interfere with THF biosynthesis in steps downstream of the reaction catalyzed by the FolE_I-type enzymes. Neither substance induced an up-regulation of folE_IB1 or folE_IA (Table S2), but TMP did induce expression of pfl-glyA (Table S1). The ∆folE_IB1 mutant of strain AE104 was less resistant to trimethoprim than its wild-type parent or the other two ∆folE deletion mutants (Fig. 7A), and the IC50 for trimethoprim decreased from 4 to 3.3 mg/L (Table S9). Resistance to trimethoprim was not affected in the ∆folE_IB2 ∆folE_IA mutant with FolE_IB1 only, but it was in the two double mutants that carried a ∆folE_IB1 deletion (Fig. 7). Resistance to TMP decreased in the ∆zupT ∆folE_IB1 but not in the ∆zur ∆folE_IB1 mutant (Fig. 7B and C). […] Since TMP decreased the concentration of fTHF as shown by the up-regulation of pfl-glyA-lacZ expression, an increased folate production was needed to counteract inhibition of a later step of folate biosynthesis by TMP. This explains the need for the activity of both FolE_IA and FolE_IB1 to resist TMP inhibition. […] Final turbidity of C. metallidurans strains in medium zinc TMM containing varying concentrations of trimethoprim is shown for derivatives of strain AE104 single (panel A) and double (panel B) mutants, ∆zupT (panel C), and ∆zur single mutants (panel D). […]

In the case of `c1ccc(-c2ccccn2)nc1` [DIP, dipyridyl], the IC50 ([1]; read-out: DIP) is reported as 57 ± 4 µM.
With `C[n+]1ccc(-c2cc[n+](C)cc2)cc1` [PQ, paraquat] the IC50 [2] was 181 ± 17 µM.
For `COc1cc(Cc2cnc(N)nc2N)cc(OC)c1OC` [TMP, trimethoprim], the IC50 [3] was 4 ± 0.2 µg/mL (≈ 13.8 µM).
Molecule `c1ccc(CN(CCN(Cc2ccccn2)Cc2ccccn2)Cc2ccccn2)nc1` [TPEN, N,N,N′,N′-tetrakis(2-pyridinylmethyl)-1,2-ethanediamine] has an IC50 ([1]; read-out: TPEN) of 1.1 ± 0.4 µM.
